{
  "source": "paper PMC9374667",
  "about": "(Communications Biology, 2022)",
  "key": {"[1]": {"system": "F4/80-positive macrophages", "assay": "Immunohistochemical staining of eWAT for F4/80", "assay_type": "in vivo, mice", "details": "for Quantification of immunohistochemical staining: Figure 5k, individual values; for Proportion of F4/80-positive macrophages around adipocytes: db/db mice, epididymal fat pads", "description": "The adipose tissue was fixed overnight in 4% paraformaldehyde, then embedded in paraffin and cut into 5 µm thick slices. Tissue sections were stained with hematoxylin and eosin (H&E). For immunohistochemistry, sections were incubated with primary antibodies against F4/80 (1:100 dilution) diluted in the blocking solution at 4 °C overnight. The tissue sections were then incubated with the horseradish peroxidase (HRP)-conjugated secondary antibody at room temperature for 2 h. Finally, the sections were developed with diaminobenzidine (DAB) and counterstained with hematoxylin. Images were obtained under a microscope. To quantify the F4/80-positive macrophages, two random fields per sample were analyzed by Image J software. The IHC profiler plugin of ImageJ was used to calculate the F4/80 positive area."}, "[2]": {"system": "TNF-α and IL-6", "assay": "TNF-α and IL-6 in supernatant of TNF-α induced 3T3-L1 adipocytes (ELISA)", "assay_type": "cell-based, Murine", "design": "levels of TNF-α / levels of IL-6: unit not given here", "details": "for Levels of TNF-α and IL-6 in the supernatant: 3T3-L1 adipocytes treated with TNF-α; for levels of TNF-α: Figure 7e", "description": "We next examined the role of BJ on TNF-α induced inflammation of differentiated 3T3-L1 adipocytes.\nThe serum was collected by centrifugation at 3000 × g at 4 °C for 15 min and stored at −80 °C until analysis. TG, TC, LDL-C, HDL-C, and FFA were routinely tested on a Chemray 240 automatic biochemical analyzer (Chemray 240, Shenzhen, China). Serum levels of mouse adiponectin, interleukin6 (IL-6), tumor necrosis factor-α (TNF-α) were measured using commercial enzyme-linked immunosorbent assay (ELISA) kits (Nanjing Jiancheng Bioengineering Institute, Nanjing, China) and according to the manufacturer’s instructions. The levels of IL-6, TNF-α in 3T3-L1 adipocyte culture supernatant were also detected by ELISA."}, "[3]": {"system": "3T3-L1 adipocytes", "assay": "Oil Red O staining and lipid quantification;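 for Oil Red O staining of differentiated 3T3-L1 adipocytes spectrophotometric analysis: treatment added on day 8 of adipocyte differentiation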", "assay_type": "cell-based, Murine", "details": "for Oil Red O staining of differentiated 3T3-L1 adipocytes spectrophotometric analysis: Figure 7b, replicates", "description": "Meanwhile, we conducted in vitro experiments to validate the role of BJ in adipocytes. […] These findings were similar to the results in vivo.\nMurine 3T3-L1 preadipocytes were the kind gift of Prof. Wenbin Shang and Prof. Xizhong Yu (Nanjing University of Chinese Medicine, China). Cells were cultured in Dulbecco’s modified Eagle’s medium (DMEM) supplemented with 10% (vol/vol) fetal bovine serum (FBS), 1% (vol/vol) penicillin/streptomycin in an incubator at 37 °C and 5% CO2 (until confluent). Two days after the preadipocytes reached 100% confluency (designated day 0), the cells were cultured in DMEM with 10% FBS supplemented with IBMX (0.5 mM final concentration), DEX (1 μM final concentration), and insulin (10 μg/ml final concentration) for 3 days (days 0–3). Then the cells were cultured in a medium containing insulin (10 μg/ml final concentration) for another 3 days (days 3–6).\nLipid accumulation in differentiated adipocytes was observed by Oil Red O staining. The differentiated 3T3-L1 adipocytes were washed with PBS for 3 times and fixed with 4% paraformaldehyde for 30 min at room temperature. The fixed 3T3-L1 adipocytes were washed with PBS for 3 times and stained with Oil Red O solution at room temperature for 60 min. Stained lipid droplets were photographed and then eluted with 100% isopropanol stained Oil Red O. Finally, the optical density (OD) value of the eluent was measured at 510 nm wavelength with a microplate reader."}, "[4]": {"system": "glycerol release", "assay": "Glycerol release in eWAT of db/db mice (isoproterenol)", "assay_type": "in vivo", "design": "Glycerol release in eWAT (Figure 4m): unit not given here", "details": "for Release of glycerol in eWAT: db/db mice, isoproterenol stimulation; for Glycerol release in eWAT (Figure 4m): individual samples 1-6", "description": "The epididymal adipose tissue was dissected, the fresh adipose tissue was weighed and rapidly rinsed with PBS. The adipose tissue was cut and incubated with isoproterenol (10 μM) for 2 h, and homogenized in a cold cleavage buffer to prepare the adipose tissue homogenate. Then the homogenate was centrifuged at 12,000 × g at 4 °C for 15 min, and the supernatant was collected. […] Then the cells were lysed in a petri dish, scraped off, and centrifuged at 12,000 × g at 4 °C for 15 min before the supernatant was collected. […] And concentrations were further standardized according to protein concentration."}, "[5]": {"assay": "Solubility in water and octanol and log P at 25°C", "details": "for solubility: 25 °C", "text": "beyond changes in oral bioavailability and solubility. This is particularly relevant when […]\nL og P is the logarithmic value of the oil-water partition coefficient P, which refers to the partition equilibrium of undissociated molecules in the oil and water phases. The log P value is closely related to the water solubility, membrane permeability, in vivo ADME process, and affinity of the compound to the receptor and plays a vital role in the permeation of compounds through biological membranes. The log P 0-5 range is optimal for oral drug penetration by passive diffusion, with poor water solubility for high log P compounds and poor lipid […]\nexperiments to exert drug activity in cells."}, "[6]": {"system": "Fasn, Acaca, Lpl, Ucp1, Ppargc1a, Ppargc1b, Elovl3, Cox8b", "assay": "qRT-PCR of lipid-metabolism-related genes (eWAT) and thermogenic genes (BAT)", "assay_type": "in vivo", "details": "db/db mice; for Expression of lipogenic genes (Fasn, Acaca, Lpl) in eWAT: vs vehicle control", "text": "Total RNA was isolated from 3T3-L1 cells and adipose tissue homogenates using Trizol reagent (Invitrogen, Carlsbad, CA, USA). RNA concentration and purity were examined at 260/280 nm using a nanodrop spectrophotometer (NanoDrop One, Thermo Fisher Scientific, USA). The total RNA was reverse transcribed to cDNA using the EasyScript All-in-One First-Strand cDNA Synthesis SuperMix for qPCR kit (TransGen Biotech, Beijing, China). The quantitative reverse transcription polymerase chain reaction was performed using TransStart Top Green qPCR SuperMix (TransGen Biotech, Beijing, China) and an Applied Biosystems 7500 RealTime PCR System (Life Technologies, USA). Relative expression levels were normalized to gapdh expression and quantified using the 2^-ΔΔCt method. The primers were synthesized by Shanghai Sangon Biotech, and the detailed primer sequences were shown in Supplementary Table 5 in the supplementary materials."}, "[7]": {"system": "cAMP", "assay": "cAMP levels in eWAT of db/db mice (isoproterenol)", "assay_type": "in vivo", "design": "cAMP levels in eWAT (Figure 4l): unit not given here", "details": "for cAMP levels in eWAT: db/db mice, isoproterenol stimulation; for cAMP levels in eWAT (Figure 4l): individual samples 1-6", "description": "The epididymal adipose tissue was dissected, the fresh adipose tissue was weighed and rapidly rinsed with PBS. The adipose tissue was cut and incubated with isoproterenol (10 μM) for 2 h, and homogenized in a cold cleavage buffer to prepare the adipose tissue homogenate. Then the homogenate was centrifuged at 12,000 × g at 4 °C for 15 min, and the supernatant was collected. For 3T3-L1 adipocytes, the adipocytes were treated with or without 50 ng/ml TNF-α or 3 μg IKKε plasmid or 4 μM siIKKε for 24 h and then treated with or without 10 μM ISO or 10 μM BJ for 24 h. Then the cells were lysed in a petri dish, scraped off, and centrifuged at 12,000 × g at 4 °C for 15 min before the supernatant was collected.\nGlycerol or cAMP content in adipose tissue and 3T3-L1 adipocytes was determined by a glycerol assay kit (Nanjing Jiancheng Bioengineering Institute, Nanjing, China) or a mouse cAMP assay kit (Nanjing Jiancheng Bioengineering Institute, Nanjing, China). And concentrations were further standardized according to protein concentration."}},
  "note": "“And” between values parts separate entries of the source, which are not always exact repeats. Equal entries are not always repeated.",
  "data": [
    {"smiles": "COc1ccc2cc3[n+](cc2c1OC)CCc1cc2c(cc1-3)OCO2", "note": "[BBR, Berberine chloride dihydrate]", "values": [
      {"measurement": "Quantification of immunohistochemical staining", "setting": "[1]; BBR 150mg/kg", "result": "0.8707 and 0.7836 and 0.9995 and 1.2402 and 1.136 and 0.9532"},
      {"measurement": "Proportion of F4/80-positive macrophages around adipocytes", "setting": "[1]", "result": "lower than that of the vehicle-treated db/db mice"},
      {"measurement": "Levels of TNF-α and IL-6 in the supernatant", "setting": "[2]", "result": "significantly reduced the levels of TNF-α and IL-6"},
      {"measurement": "levels of TNF-α", "setting": "[2]; TNF-α(50ng/ml)+10μM BBR, replicates", "result": "111.895 and 109.61 and 99.3949 and 99.3623 and 111.275 and 110.361"},
      {"measurement": "levels of IL-6", "setting": "[2]; Figure 7f, TNF-α(50ng/ml)+10μM BBR, replicates", "result": "17.4575 and 16.5244 and 17.8031 and 16.7594 and 17.9828 and 16.9875"},
      {"measurement": "Oil Red O staining of differentiated 3T3-L1 adipocytes spectrophotometric analysis", "setting": "[3]; 10μM BBR", "result": "0.6307 O.D. and 0.6591 O.D. and 0.6319 O.D. and 0.6294 O.D. and 0.6584 O.D. and 0.6194 O.D."},
      {"measurement": "Release of glycerol in eWAT", "setting": "[4]", "result": "promoted the release of glycerol"},
      {"measurement": "Glycerol release in eWAT (Figure 4m)", "setting": "[4]; db/db+ISO+BBR 150mg/kg", "result": "626.099 and 631.162 and 626.943 and 630.318 and 632.849"},
      {"measurement": "solubility", "setting": "[5]; octanol, organic solvent or mixture", "result": "14.3 ± 0.41", "unit": "µM"},
      {"measurement": "logP", "setting": "[5]; octanol/water", "result": -0.041},
      {"measurement": "solubility", "setting": "[5]; water", "result": "15.8 ± 0.81", "unit": "µM"},
      {"measurement": "Expression of brown fat enrichment genes (Ucp1, Ppargc1a, Ppargc1b, Elovl3, Cox8b) in BAT", "setting": "[6]", "result": "elevated express"},
      {"measurement": "Expression of lipogenic genes (Fasn, Acaca, Lpl) in eWAT", "setting": "[6]", "result": "downregulation of lipogenic genes"},
      {"measurement": "cAMP levels in eWAT", "setting": "[7]", "result": "increased the cAMP levels"},
      {"measurement": "cAMP levels in eWAT (Figure 4l)", "setting": "[7]; db/db+ISO+BBR 150mg/kg", "result": "0.3703 and 0.3189 and 0.32 and 0.3561 and 0.3523 and 0.3716"}
    ]},
    {"smiles": "CC(C)Cc1ccc(C(C)C(=O)[O-])cc1.COc1ccc2cc3[n+](cc2c1OC)CCc1cc2c(cc1-3)OCO2.O.O.O.O", "note": "[BJ, berberine-ibuprofen]", "values": [
      {"measurement": "Quantification of immunohistochemical staining", "setting": "[1]; BJ 75mg/kg", "result": "0.9922 and 0.9735 and 1.1881 and 1.5389 and 0.7221 and 0.7355"},
      {"measurement": "Quantification of immunohistochemical staining", "setting": "[1]; BJ 150mg/kg", "result": "0.2082 and 0.4937 and 0.5395 and 0.2725 and 0.374 and 0.2768"},
      {"measurement": "Proportion of F4/80-positive macrophages around adipocytes", "setting": "[1]", "result": "lower than that of the vehicle-treated db/db mice"},
      {"measurement": "Levels of TNF-α and IL-6 in the supernatant", "setting": "[2]", "result": "significantly reduced the levels of TNF-α and IL-6"},
      {"measurement": "levels of TNF-α", "setting": "[2]; TNF-α(50ng/ml)+10μM BJ, replicates", "result": "96.425 and 110.916 and 111.046 and 97.6978 and 106.64 and 114.538"},
      {"measurement": "Oil Red O staining of differentiated 3T3-L1 adipocytes spectrophotometric analysis", "setting": "[3]; 3μM BJ", "result": "0.6023 O.D. and 0.5794 O.D. and 0.5902 O.D. and 0.5901 O.D. and 0.5958 O.D. and 0.5823 O.D."},
      {"measurement": "Oil Red O staining of differentiated 3T3-L1 adipocytes spectrophotometric analysis", "setting": "[3]; 10μM BJ", "result": "0.6036 O.D. and 0.5893 O.D. and 0.5433 O.D. and 0.5202 O.D. and 0.5568 O.D. and 0.48 O.D."},
      {"measurement": "Accumulation of lipid droplets", "setting": "[3]; differentiated 3T3-L1 adipocytes, BJ 3 μM and 10 μM, 24 h, Oil Red O", "result": "reduced the accumulation of lipid droplets in 3T3-L1 adipocytes in a dose-dependent manner"},
      {"measurement": "Release of glycerol in eWAT", "setting": "[4]", "result": "promoted the release of glycerol"},
      {"measurement": "Glycerol release in eWAT (Figure 4m)", "setting": "[4]; db/db+ISO+BJ 75mg/kg", "result": "372.977 and 400.82 and 389.008 and 382.258 and 389.852 and 395.758"},
      {"measurement": "log P", "setting": "[5]", "result": 1.564},
      {"measurement": "Expression of brown fat enrichment genes (Ucp1, Ppargc1a, Ppargc1b, Elovl3, Cox8b) in BAT", "setting": "[6]", "result": "elevated express"},
      {"measurement": "Expression of lipogenic genes (Fasn, Acaca, Lpl) in eWAT", "setting": "[6]", "result": "downregulation of lipogenic genes"},
      {"measurement": "cAMP levels in eWAT", "setting": "[7]", "result": "increased the cAMP levels"},
      {"measurement": "cAMP levels in eWAT (Figure 4l)", "setting": "[7]; db/db+ISO+BJ 75mg/kg", "result": "0.344 (2×) and 0.3396 and 0.3778 and 0.3937 and 0.3516"},
      {"measurement": "cAMP levels in eWAT (Figure 4l)", "setting": "[7]; db/db+ISO+BJ 150mg/kg", "result": "0.3909 and 0.4246 and 0.4135 (2×) and 0.4162 and 0.4061"}
    ]}
  ]
}
